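Results reflect a 48-hour exposure of cells in 96-well plates to compound at five concentrations. GI50: concentration for 50% inhibition of growth. TGI is the concentration that stops growth completely.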
What was measured:
Assay in all cases: DTP human tumour cell line panel, 48 h
[1] = system: A498 renal
[2] = system: COLO 205 colon
[3] = system: HCC-2998 colon
[4] = system: HCT-116 colon
[5] = system: KM12 colon
[6] = system: MOLT-4 leukemia
[7] = system: NCI-H23 lung
[8] = system: RXF 393 renal
[9] = system: TK-10 renal
[10] = system: UACC-62 melanoma

Row | Structure (SMILES) | GI50 [1] [µM] | TGI [1] [µM] | GI50 [2] [µM] | TGI [2] [µM] | GI50 [3] [µM] | TGI [3] [µM] | GI50 [4] [µM] | TGI [4] [µM] | GI50 [5] [µM] | TGI [5] [µM] | GI50 [6] [µM] | TGI [6] [µM] | GI50 [7] [µM] | TGI [7] [µM] | GI50 [8] [µM] | TGI [8] [µM] | GI50 [9] [µM] | TGI [9] [µM] | GI50 [10] [µM] | TGI [10] [µM]
1 | Cc1cc(C(=O)Nc2ccc3cc(CN4CCOCC4)ccc3n2)c(C)n1-c1ccccc1 | 3.09 | 64.2 | 1.83 | 5.07 | 8.78 | > 100 | 1.68 | 17.2 | 1.68 | 4.66 | 0.812 | 3.29 | 0.974 | 6.77 | 2.18 | 7.01 | 4.75 | 58.5 | 1.38 | 3.88
2 | COCC[C@H]1CCC/C=C/[C@@H]2C[C@H](O)C[C@H]2[C@H](O)/C=C/C(=O)O1 | 0.0231 | 0.107 | 0.0227 | 0.0472 | 0.079 | – | 0.149 | 0.332 | 0.034 | 0.118 | 0.353 | > 100 | 0.0858 | 0.858 | 0.0219 | 0.0539 | 0.18 | 0.63 | 0.0425 | > 100
3 | CCOC(=O)/C(C)=C(/O)C(=O)OCC | – | > 100 | – | > 100 | – | > 100 | – | > 100 | – | > 100 | – | > 100 | – | > 100 | – | > 100 | – | > 100 | – | > 100
4 | COc1cc(OC)c(C(=O)/C=C/c2cccc(C(F)(F)F)c2)c(OC)c1 | 1.4 | 4.44 | 1.06 | 2.21 | 2.11 | 6.89 | 0.806 | 1.59 | 1.79 | 6.42 | 0.873 | 3.75 | 1.14 | 3.48 | 1.03 | 2.24 | 1.85 | 6.01 | 0.986 | 2.5
5 | CC(C)c1ccc(-c2cc(-c3cn[nH]c3-c3ccccn3)ccn2)cc1 | > 13.6 | > 25 | 13.3 | > 25 | 10.4 | > 25 | 10.3 | > 25 | 9.83 | > 25 | 8.06 | > 24.1 | 11.7 | > 25 | > 18.5 | > 25 | > 18.6 | > 25 | 17.2 | > 25
6 | Cc1cc(C)c(NC(=O)c2sc3nc4c(cc3c2N)C(=O)CCC4)c(C)c1 | 3.4 | > 51.5 | 3.23 | > 100 | 3.07 | > 78.2 | 3.85 | > 100 | 2.8 | > 100 | 5.68 | > 100 | 3.9 | > 100 | 1.32 | 4.43 | 4.5 | > 87.9 | 1.31 | > 100
7 | CCc1nc(N)nc(N)c1-c1ccc(NC)c([N+](=O)[O-])c1 | – | > 87 | – | 34.4 | – | 65.7 | – | > 100 | – | > 100 | – | > 68.2 | – | > 100 | – | > 93.3 | – | > 100 | – | > 100
8 | CC1(C)C(=O)/C(=C\c2cccnc2)C[C@]2(C)[C@H]3CC[C@@H]4[C@H]5[C@H](C(=O)/C=C/c6cccnc6)CC[C@]5(C(=O)O)CC[C@@]4(C)[C@]3(C)CC[C@@H]12 | 1.92 | 3.44 | 2.33 | 5.17 | 1.88 | 3.55 | 1.61 | 3.56 | 1.73 | 3.64 | 2.22 | 11.5 | 2.06 | 4.87 | 1.67 | 3.1 | 3.57 | 10.9 | 2.03 | 4.02
9 | C=C(C)CCN[Si](c1ccccc1)(c1ccccc1)C(C)(C)C | – | > 100 | – | 33.3 | – | 43.3 | – | 27.7 | – | 36.3 | – | 52.6 | – | 45.3 | – | 32.4 | – | 68.3 | – | 31.9
10 | C=CCCCCC/C=C\[C@@H](O)C#CC#C/C=C/CO | > 100 | > 100 | > 100 | > 100 | > 100 | > 100 | 45.7 | > 100 | 77.5 | > 100 | 18.3 | 43.8 | 43.6 | > 100 | > 100 | > 100 | > 100 | > 100 | > 100 | > 100
11 | O=C(Nc1n[nH]c2cc(-c3ccccc3)ccc12)C1CC1 | 16.1 | > 25 | 12.4 | > 25 | 8.07 | > 25 | 6.56 | > 25 | 2.11 | > 25 | > 16.6 | > 25 | 16.8 | > 25 | 7.91 | > 25 | > 25 | > 25 | > 25 | > 25
12 | Cc1nnc(NS(=O)(=O)c2ccc(N=Nc3cc(N=Nc4ccc(S(=O)(=O)Nc5nnc(C)s5)cc4)c4c(NC(=O)C(Cl)Cl)cccc4c3OC(=O)C(Cl)Cl)cc2)s1 (tested in a mixture with another compound) | – | > 100 | – | > 100 | – | 62.1 | – | 41.7 | – | > 100 | – | 33 | – | 49.5 | – | 55.9 | – | 95.6 | – | 89.1
13 | CC(C)c1c(O)c(O)c2c(c1O)C(=O)C(O)=C1C(C)(C)CCC[C@@]12C | – | 11.9 | – | 3.6 | – | 10.4 | – | 11.2 | – | 12.2 | – | 5.99 | – | 13.8 | – | 9.24 | – | 15.1 | – | 16.1
14 | Cc1cc2nc(C=C(C(F)(F)F)C(F)(F)F)oc2cc1C | – | > 10 | – | 0.392 | – | 6.9 | – | 2.72 | – | > 10 | – | 5.66 | – | 4.97 | – | 4.92 | – | 5.16 | – | > 10
15 | CC1=CC(C)(C)N=C2SC(c3ccc(N)cc3)=NN12 | – | > 100 | – | > 61.2 | – | > 100 | – | > 100 | – | > 100 | – | > 100 | – | > 100 | – | > 100 | – | > 100 | – | > 100
16 | COc1ccc(C(=O)c2cc(C)c(OC)c(C)c2)c(OC)c1O | 1.84 | 6.03 | 7.77 | 28.4 | 0.127 | > 27.4 | 0.103 | > 100 | < 0.017 | > 100 | 0.0448 | > 100 | 0.0879 | > 100 | 0.163 | > 100 | 25 | > 100 | 0.638 | > 100
17 | COc1ccc2[nH]c3c4[nH]c5ccc(OC)cc5c4c4c(c3c2c1)C(=O)NC4=O | 7.36 | > 25 | > 25 | > 25 | > 25 | > 25 | > 11 | > 25 | 1.76 | > 25 | > 10.3 | > 25 | > 14.4 | > 25 | – | > 15.4 | > 7.63 | > 25 | > 25 | > 25
18 | CC(=O)C1Cn2c(nc3ccccc32)C[Se]1 (stereo not drawn) | – | 32.7 | – | 30.1 | – | 22.9 | – | 7.7 | – | 10.7 | – | 6.79 | – | 7.29 | – | 5.2 | – | 13 | – | 3.64
19 | CCOC(=O)CCC(=O)C1c2cccc(O)c2C(=O)c2c(O)cc(C)cc21 (stereo not drawn) | – | 4.75 | – | 3.57 | – | 2.09 | – | 1.88 | – | 0.563 | – | 6.76 | – | 2.34 | – | 1.25 | – | 3.39 | – | 1.48
20 | COc1c(C(=O)/C=C/c2ccccc2)c(O)cc2occc12 | 7.97 | 21.8 | 15.7 | 29.9 | 3.76 | 14.3 | 3.72 | 12.5 | 3.71 | 13.3 | 3.36 | > 100 | 6.12 | 20.8 | 3.56 | 15.6 | 11.2 | 24.8 | 4.15 | 15.1
21 | COc1c2c(cc3c1OCO3)[C@]13C=C[C@H](OC)C[C@H]1N(C2)CC3O (stereo partly drawn) | – | > 100 | – | > 100 | – | > 100 | – | > 100 | – | > 100 | – | > 100 | – | > 100 | – | > 100 | – | > 100 | – | > 100
22 | COC(=O)Nc1nc2ccc(C3(c4ccc(F)cc4)OCCO3)cc2[nH]1 | 0.133 | 2.87 | 0.297 | 2.88 | 1.99 | > 100 | 0.409 | > 49.6 | 0.352 | > 100 | 0.573 | > 100 | 1.14 | > 100 | 0.211 | 0.654 | 15.7 | > 100 | 0.619 | > 100
23 | O=C(CCc1nc(=S)[nH][nH]1)Nc1ccccc1Cl | – | > 100 | – | > 100 | – | > 100 | – | > 100 | – | > 100 | – | > 100 | – | > 100 | – | > 100 | – | > 100 | – | > 100
24 | CN(C)CCC1(C2=CCCC2)CC/C(=C\c2ccc(Cl)cc2)C1=O (stereo not drawn) | – | 19.1 | – | 28.3 | – | 20.2 | – | 22.3 | – | 23.6 | – | 6.02 | – | 29.3 | – | 10.9 | – | 23.3 | – | 9.05
25 | CCCC(CCC)NCC(O)c1cc(-c2ccc(C(F)(F)F)cc2)nc(C(F)(F)F)c1 (stereo not drawn) | 1.35 | 2.67 | 2 | 3.63 | 1.68 | 3.1 | 1.66 | 3.24 | 1.93 | 3.42 | 1.89 | 3.84 | 1.58 | 3.15 | 1.47 | 2.82 | 1.98 | 3.44 | 1.72 | 3.25
26 | COc1ccc(C2=C(Cl)c3cc(OC)c(OC)cc3C2Cl)cc1 (stereo not drawn) | – | 28.9 | – | 33.4 | – | 28.1 | – | 31.3 | – | 26.4 | – | > 59.4 | – | > 54.5 | – | 30.4 | – | 47.5 | – | 31.4
27 | NC(=O)c1cc(Cl)ccc1NC(=O)/C=C/c1ccccc1 | 5.09 | > 53.7 | 2.16 | > 24.1 | 0.487 | 2.79 | 2.66 | > 100 | 2.19 | > 100 | 3.44 | > 100 | 5.62 | > 100 | 2.19 | 6.53 | 7.31 | > 95.1 | 2.18 | > 100
28 | CC/C=C\C[C@H](O)C/C=C1/C(=O)C=C[C@@H]1C/C=C\CCCC(=O)OC | 4.91 | 14.4 | 1.84 | 4.02 | 2.09 | 3.68 | 0.572 | 2.92 | 1.38 | 5.02 | 0.945 | 4.8 | 1.75 | 4.25 | 1.91 | 3.58 | 3.29 | 9.13 | 1.05 | 3.49
29 | CCNCCNc1cc(-c2ccc(C(F)(F)F)cc2)c(C#N)c2nc3ccccc3n12 | 1.86 | 3.33 | 1.01 | 2.41 | 1.8 | 3.4 | 0.388 | 1.32 | 1.51 | 3.07 | 1.31 | 3.29 | 1.62 | 3.25 | 1.69 | 3.16 | 2.14 | 3.76 | 0.496 | 1.82
30 | COc1ccc(C(=O)c2cc(OC)c(OC)c(OC)c2)cc1/C=C/C(=O)c1ccc(F)cc1 | 14 | 29.9 | 5.18 | 28.1 | 7.29 | 22.6 | 1.75 | 3.57 | 2.79 | 8.07 | 3.24 | 29.3 | 6.2 | 31.1 | 7.29 | 23.3 | 4.43 | 30.9 | 2.01 | 5.52
